Results published in paper PMC11576293, “New series of 4,6-diaryl pyrimidines: facile synthesis and antiproliferative activity as dual EGFR/VEGFR-2 inhibitors” (Frontiers in Chemistry, 2024).

Assays:
Type in all cases: cell-based
786-0 = test: NCI-60 single-dose screen; settings: Homo sapiens, single dose 10 µM, '-' = no inhibition, read-out: % Growth Inhibition
Procedure: (§1) The National Cancer Institute’s Developmental Therapeutic Program (www.dtp.nci.nih.gov) has tested compounds 9–29 (except compounds 21 and 22) against 60 cancer cell lines from nine types (leukemia, lung, colon, CNS, melanoma, ovarian, renal, prostate, and breast cancer) at a single dose (10 μM) ([El-Sherief et al., 2018]). […] The most sensitive cells included leukemia (SR, K-562, and MOLT-4), lung (NCI-H522, […], and EKVX), breast (MCF-7 and T-47D), colon (HCT-15 and HT-29), and ovarian (NCI/ADR-RES).
(§2) The National Cancer Institute’s Developmental Therapeutic Program (www.dtp.nci.nih.gov) evaluated compounds 9–29 (excluding 21 and 22) against 60 cancer cell lines from nine categories (leukemia, lung, colon, CNS, melanoma, ovarian, renal, prostate, and breast cancer) at a single dose (10 μM) ([El-Sherief et al., 2018]). See Supplementary Material A1 for more details.

A549/ATCC = test: NCI-60 single-dose screen; settings: Homo sapiens, single dose 10 µM, '-' = no inhibition, read-out: % Growth Inhibition
Procedure: as §1, §2

ACHN 1 = test: NCI-60 single-dose screen; settings: Homo sapiens, single dose 10 µM, '-' = no inhibition, read-out: % Growth Inhibition
Procedure: as §1, §2

BT-549 = test: NCI-60 single-dose screen; settings: Homo sapiens, single dose 10 µM, '-' = no inhibition, read-out: % Growth Inhibition
Procedure: as §1, §2

CAKI-1 = test: NCI-60 single-dose screen; settings: Homo sapiens, single dose 10 µM, '-' = no inhibition, read-out: % Growth Inhibition
Procedure: as §1, §2

COLO 205 = test: NCI-60 single-dose screen; settings: Homo sapiens, single dose 10 µM, '-' = no inhibition, read-out: % Growth Inhibition
Procedure: as §1, §2

DU-145 = test: NCI-60 single-dose screen; settings: Homo sapiens, single dose 10 µM, '-' = no inhibition, read-out: % Growth Inhibition
Procedure: as §1, §2

HCC-2998 = test: NCI-60 single-dose screen; settings: Homo sapiens, single dose 10 µM, '-' = no inhibition, read-out: % Growth Inhibition
Procedure: as §1, §2

HCT-116 = test: NCI-60 single-dose screen; settings: Homo sapiens, single dose 10 µM, '-' = no inhibition, read-out: % Growth Inhibition
Procedure: as §1, §2

HL-60(TB) = test: NCI-60 single-dose screen; settings: Homo sapiens, single dose 10 µM, '-' = no inhibition, read-out: % Growth Inhibition
Procedure: as §1, §2

HOP-92 = test: NCI-60 single-dose screen; settings: Homo sapiens, single dose 10 µM, '-' = no inhibition, read-out: % Growth Inhibition
Procedure: as §1, §2

HS 578T = test: NCI-60 single-dose screen; settings: Homo sapiens, single dose 10 µM, '-' = no inhibition, read-out: % Growth Inhibition
Procedure: as §1, §2

HT29 = test: NCI-60 single-dose screen; settings: Homo sapiens, HT-29, single dose 10 µM, '-' = no inhibition, read-out: % Growth Inhibition
Procedure: as §1, §2

IGROV1 = test: NCI-60 single-dose screen; settings: Homo sapiens, IGROV-1, single dose 10 µM, '-' = no inhibition, read-out: % Growth Inhibition
Procedure: as §1, §2

K-562 = test: NCI-60 single-dose screen; settings: Homo sapiens, K562, single dose 10 µM, '-' = no inhibition, read-out: % Growth Inhibition
Procedure: as §1, §2

MDA-MB-468 = test: NCI-60 single-dose screen; settings: Homo sapiens, single dose 10 µM, '-' = no inhibition, read-out: % Growth Inhibition
Procedure: as §1, §2

MDA-MB231/ATCC = test: NCI-60 single-dose screen; settings: Homo sapiens, MDA-MB-231, single dose 10 µM, '-' = no inhibition, read-out: % Growth Inhibition
Procedure: as §1, §2

NCI-H23 = test: NCI-60 single-dose screen; settings: Homo sapiens, single dose 10 µM, '-' = no inhibition, read-out: % Growth Inhibition
Procedure: as §1, §2

NCI-H322M = test: NCI-60 single-dose screen; settings: Homo sapiens, single dose 10 µM, '-' = no inhibition, read-out: % Growth Inhibition
Procedure: as §1, §2

NCI-H460 = test: NCI-60 single-dose screen; settings: Homo sapiens, single dose 10 µM, '-' = no inhibition, read-out: % Growth Inhibition
Procedure: as §1, §2

NCI-H522 = test: NCI-60 single-dose screen; settings: Homo sapiens, single dose 10 µM, '-' = no inhibition, read-out: % Growth Inhibition
Procedure: as §1, §2

NCI/ADR-RES = test: NCI-60 single-dose screen; settings: Homo sapiens, single dose 10 µM, '-' = no inhibition, read-out: % Growth Inhibition
Procedure: as §1, §2

OVCAR-3 = test: NCI-60 single-dose screen; settings: Homo sapiens, single dose 10 µM, '-' = no inhibition, read-out: % Growth Inhibition
Procedure: as §1, §2

OVCAR-4 = test: NCI-60 single-dose screen; settings: Homo sapiens, single dose 10 µM, '-' = no inhibition, read-out: % Growth Inhibition
Procedure: as §1, §2

OVCAR-5 = test: NCI-60 single-dose screen; settings: Homo sapiens, single dose 10 µM, '-' = no inhibition, read-out: % Growth Inhibition
Procedure: as §1, §2

OVCAR-8 = test: NCI-60 single-dose screen; settings: Homo sapiens, single dose 10 µM, '-' = no inhibition, read-out: % Growth Inhibition
Procedure: as §1, §2

PC-3 = test: NCI-60 single-dose screen; settings: Homo sapiens, single dose 10 µM, '-' = no inhibition, read-out: % Growth Inhibition
Procedure: as §1, §2

RPMI-8226 = test: NCI-60 single-dose screen; settings: Homo sapiens, single dose 10 µM, '-' = no inhibition, read-out: % Growth Inhibition
Procedure: as §1, §2

RXF 393 = test: NCI-60 single-dose screen; settings: Homo sapiens, single dose 10 µM, '-' = no inhibition, read-out: % Growth Inhibition
Procedure: as §1, §2

SF-268 = test: NCI-60 single-dose screen; settings: Homo sapiens, single dose 10 µM, '-' = no inhibition, read-out: % Growth Inhibition
Procedure: as §1, §2

SF-539 = test: NCI-60 single-dose screen; settings: Homo sapiens, single dose 10 µM, '-' = no inhibition, read-out: % Growth Inhibition
Procedure: as §1, §2

SK-MEL-28 = test: NCI-60 single-dose screen; settings: Homo sapiens, single dose 10 µM, '-' = no inhibition, read-out: % Growth Inhibition
Procedure: as §1, §2

SK-MEL-2 = test: NCI-60 single-dose screen; settings: Homo sapiens, single dose 10 µM, '-' = no inhibition, read-out: % Growth Inhibition
Procedure: as §1, §2

SK-MEL-5 = test: NCI-60 single-dose screen; settings: Homo sapiens, single dose 10 µM, '-' = no inhibition, read-out: % Growth Inhibition
Procedure: as §1, §2

SK-OV-3 = test: NCI-60 single-dose screen; settings: Homo sapiens, single dose 10 µM, '-' = no inhibition, read-out: % Growth Inhibition
Procedure: as §1, §2

SN12C = test: NCI-60 single-dose screen; settings: Homo sapiens, single dose 10 µM, '-' = no inhibition, read-out: % Growth Inhibition
Procedure: as §1, §2

SNB-19 = test: NCI-60 single-dose screen; settings: Homo sapiens, single dose 10 µM, '-' = no inhibition, read-out: % Growth Inhibition
Procedure: as §1, §2

SR = test: NCI-60 single-dose screen; settings: Homo sapiens, single dose 10 µM, '-' = no inhibition, read-out: % Growth Inhibition
Procedure: as §1, §2

TK-10 = test: NCI-60 single-dose screen; settings: Homo sapiens, single dose 10 µM, '-' = no inhibition, read-out: % Growth Inhibition
Procedure: as §1, §2

U251 = test: NCI-60 single-dose screen; settings: Homo sapiens, U-251, single dose 10 µM, '-' = no inhibition, read-out: % Growth Inhibition
Procedure: as §1, §2

UACC-257 = test: NCI-60 single-dose screen; settings: Homo sapiens, single dose 10 µM, '-' = no inhibition, read-out: % Growth Inhibition
Procedure: as §1, §2

UACC-62 = test: NCI-60 single-dose screen; settings: Homo sapiens, single dose 10 µM, '-' = no inhibition, read-out: % Growth Inhibition
Procedure: as §1, §2

UO-31 = test: NCI-60 single-dose screen; settings: Homo sapiens, single dose 10 µM, '-' = no inhibition, read-out: % Growth Inhibition
Procedure: as §1, §2

[1] = system: four cancer cell lines (A-549, MCF-7, Panc-1, HT-29); test: Antiproliferative assay, average over four cancer cell lines; settings: Homo sapiens; average of the four cancer cell lines; read-out: Average IC50 (GI50)
Description: Table 2 presents the four cancer cell lines’ median inhibitory concentration (IC50) and GI50 (average IC50) values.
The IC50 values were derived from dose-response tests. The reported data are derived from at least two independent studies, each comprising three replicates per concentration. See Supplementary Material A1 for more details.

## CCCSc1nc(-c2ccc(Cl)cc2)cc(-c2ccc(OC)cc2)n1 [Compound 11, 4-(4-Chlorophenyl)-6-(4-methoxyphenyl)-2-(propylthio)pyrimidine]
786-0
  inhibition at 10 µM: 0.11%
A549/ATCC
  inhibition at 10 µM: 6.74%
ACHN 1
  inhibition at 10 µM: < 0%
BT-549
  inhibition at 10 µM: < 0%
CAKI-1
  inhibition at 10 µM: 7.98%
COLO 205
  inhibition at 10 µM: < 0%
DU-145
  inhibition at 10 µM: 0.44%
HCC-2998
  inhibition at 10 µM: < 0%
HCT-116
  inhibition at 10 µM: < 0%
HL-60(TB)
  inhibition at 10 µM: 13.5%
HOP-92
  inhibition at 10 µM: < 0%
HS 578T
  inhibition at 10 µM: < 0%
HT29
  inhibition at 10 µM: 10.7%
IGROV1
  inhibition at 10 µM: < 0%
K-562
  inhibition at 10 µM: 6.55%
MDA-MB-468
  inhibition at 10 µM: 7.92%
MDA-MB231/ATCC
  inhibition at 10 µM: < 0%
NCI-H23
  inhibition at 10 µM: < 0%
NCI-H322M
  inhibition at 10 µM: < 0%
NCI-H460
  inhibition at 10 µM: < 0%
NCI-H522
  inhibition at 10 µM: 9.17%
NCI/ADR-RES
  inhibition at 10 µM: < 0%
OVCAR-3
  inhibition at 10 µM: < 0%
OVCAR-4
  inhibition at 10 µM: < 0%
OVCAR-5
  inhibition at 10 µM: < 0%
OVCAR-8
  inhibition at 10 µM: 2.49%
PC-3
  inhibition at 10 µM: < 0%
RPMI-8226
  inhibition at 10 µM: < 0%
RXF 393
  inhibition at 10 µM: < 0%
SF-268
  inhibition at 10 µM: < 0%
SF-539
  inhibition at 10 µM: < 0%
SK-MEL-28
  inhibition at 10 µM: < 0%
SK-MEL-2
  inhibition at 10 µM: 7.18%
SK-MEL-5
  inhibition at 10 µM: 3.98%
SK-OV-3
  inhibition at 10 µM: < 0%
SN12C
  inhibition at 10 µM: 6.25%
SNB-19
  inhibition at 10 µM: 1.03%
SR
  inhibition at 10 µM: 14.6%
TK-10
  inhibition at 10 µM: < 0%
U251
  inhibition at 10 µM: 5.99%
UACC-257
  inhibition at 10 µM: < 0%
UACC-62
  inhibition at 10 µM: 18.1%
UO-31
  inhibition at 10 µM: 9.15%
[1]
  IC50: 54 nM

## CCSc1nc(-c2ccc(OC)cc2)cc(-c2cccc(OC)c2)n1 [Compound 17, 2-(Ethylthio)-6-(3-methoxyphenyl)-4-(4-methoxyphenyl)pyrimidine]
786-0
  inhibition at 10 µM: < 0%
A549/ATCC
  inhibition at 10 µM: 0.61%
ACHN 1
  inhibition at 10 µM: < 0%
BT-549
  inhibition at 10 µM: < 0%
CAKI-1
  inhibition at 10 µM: 9.72%
COLO 205
  inhibition at 10 µM: < 0%
DU-145
  inhibition at 10 µM: < 0%
HCC-2998
  inhibition at 10 µM: < 0%
HCT-116
  inhibition at 10 µM: 5.86%
HL-60(TB)
  inhibition at 10 µM: 18.6%
HOP-92
  inhibition at 10 µM: < 0%
HS 578T
  inhibition at 10 µM: < 0%
HT29
  inhibition at 10 µM: < 0%
IGROV1
  inhibition at 10 µM: < 0%
K-562
  inhibition at 10 µM: 9.37%
MDA-MB-468
  inhibition at 10 µM: < 0%
MDA-MB231/ATCC
  inhibition at 10 µM: 6.41%
NCI-H23
  inhibition at 10 µM: < 0%
NCI-H322M
  inhibition at 10 µM: < 0%
NCI-H460
  inhibition at 10 µM: < 0%
NCI-H522
  inhibition at 10 µM: 5.39%
NCI/ADR-RES
  inhibition at 10 µM: < 0%
OVCAR-3
  inhibition at 10 µM: < 0%
OVCAR-4
  inhibition at 10 µM: 3.36%
OVCAR-5
  inhibition at 10 µM: < 0%
OVCAR-8
  inhibition at 10 µM: < 0%
PC-3
  inhibition at 10 µM: < 0%
RPMI-8226
  inhibition at 10 µM: 3.83%
RXF 393
  inhibition at 10 µM: < 0%
SF-268
  inhibition at 10 µM: < 0%
SF-539
  inhibition at 10 µM: < 0%
SK-MEL-28
  inhibition at 10 µM: < 0%
SK-MEL-2
  inhibition at 10 µM: 5.15%
SK-MEL-5
  inhibition at 10 µM: 6.31%
SN12C
  inhibition at 10 µM: < 0%
SNB-19
  inhibition at 10 µM: < 0%
SR
  inhibition at 10 µM: 18.4%
TK-10
  inhibition at 10 µM: < 0%
U251
  inhibition at 10 µM: < 0%
UACC-257
  inhibition at 10 µM: < 0%
UACC-62
  inhibition at 10 µM: < 0%
UO-31
  inhibition at 10 µM: 13.7%
[1]
  IC50: 29 nM

## COc1ccc(CSc2nc(-c3ccc(OC)cc3)cc(-c3cccc(OC)c3)n2)cc1 [Compound 22, 2-(4-Methoxybenzylthio)-6-(3-methoxyphenyl)-4-(4-methoxyphenyl)pyrimidine]
[1]
  IC50: 22 nM
